Laboratory results: ChEMBL document CHEMBL4665775, “Half-life extension of peptidic APJ agonists by N-terminal lipid conjugation” (Bioorg Med Chem Lett, 2020)

Legend:
[1] = Volume of distribution at steady state in Sprague-Dawley rat at 0.1 mg/kg, iv administered as single dose and measured up to 48 hrs; format: ADME, organism-based; details: in vivo, read-out: Vdss
[2] = Stability in rat liver S9 fraction assessed as compound remaining at 4 hrs; format: ADME, subcellular; details: read-out: Stabilty
[3] = Stability in rat plasma assessed as compound remaining at 4 hrs; format: ADME, cell-free; details: read-out: Stabilty
[4] = AUC (0 to t) in Sprague-Dawley rat at 0.1 mg/kg, iv administered as single dose and measured up 48 hrs; format: ADME, organism-based; design: dose 0.1 mg/kg, time <=48; details: in vivo
Apelin receptor = target: T1, Apelin receptor (Rattus norvegicus, UniProt Q9JHG3); experiment: Agonist activity at rat APJ receptor stably expressed in CHO cell membranes in presence of [35S]GTPgammaS by scintillation proximity assay; format: functional
T1 sequence (Q9JHG3 whole entry): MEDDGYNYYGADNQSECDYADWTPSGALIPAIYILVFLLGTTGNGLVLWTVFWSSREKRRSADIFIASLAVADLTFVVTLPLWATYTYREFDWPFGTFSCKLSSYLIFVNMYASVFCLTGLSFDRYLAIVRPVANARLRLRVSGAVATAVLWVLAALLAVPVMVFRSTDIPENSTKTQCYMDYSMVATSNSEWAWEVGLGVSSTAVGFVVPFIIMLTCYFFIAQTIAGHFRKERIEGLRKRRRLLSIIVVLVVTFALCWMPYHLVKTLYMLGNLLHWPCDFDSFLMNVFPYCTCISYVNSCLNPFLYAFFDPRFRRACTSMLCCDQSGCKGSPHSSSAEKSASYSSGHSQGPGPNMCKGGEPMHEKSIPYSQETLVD

[5] = Half life in Sprague-Dawley rat at 0.1 mg/kg, iv administered as single dose and measured up to 48 hrs; format: ADME, organism-based; details: in vivo
[6] = Stability in rat Kidney S9 fraction assessed as compound remaining at 4 hrs; format: ADME, subcellular; details: read-out: Stabilty
[7] = Unbound clearance in Sprague-Dawley rat at 0.1 mg/kg, iv administered as single dose and measured up to 48 hrs; format: ADME, organism-based; details: in vivo
[8] = Clearance in Sprague-Dawley rat at 0.1 mg/kg, iv administered as single dose and measured up to 48 hrs; format: ADME, organism-based; details: in vivo
[9] = Plasma protein binding in rat assessed as unbound fraction by LC-MS/MS analysis; format: ADME, cell-free
[10] = Unbound Cmax in Sprague-Dawley rat at 0.5 mg/kg, sc administered as single dose and measured up to 48 hrs; format: ADME, organism-based; details: in vivo
[11] = AUC (0 to t) in Sprague-Dawley rat at 0.5 mg/kg, sc administered as single dose and measured up to 48 hrs; format: ADME, organism-based; design: route subcutaneous, dose 0.5 mg/kg, time <=48; details: in vivo
[12] = Half life in Sprague-Dawley rat at 0.5 mg/kg, sc administered as single dose and measured up to 48 hrs; format: ADME, organism-based; details: in vivo
[13] = Tmax in Sprague-Dawley rat at 0.5 mg/kg, sc administered as single dose and measured up to 48 hrs; format: ADME, organism-based; details: in vivo
[14] = Bioavailability in Sprague-Dawley rat at 0.5 mg/kg, sc administered as single dose and measured up to 48 hrs; format: ADME, organism-based; details: in vivo

Row | Compound | Vd [1] [L/kg] | remaining at 4 h [2] [%] | remaining at 4 h [3] [%] | AUC(0-t) at 48 h [4] [µM·h] | EC50 (Apelin receptor) [nM] | half-life [5] [h] | remaining at 4 h [6] [%] | CL free [7] [mL/min/kg] | clearance [8] [mL/min/kg] | fraction unbound [9] | fCmax [10] [nM] | AUC(0-t) at 48 h [11] [µM·h] | half-life [12] [h] | Tmax [13] [h] | bioavailability [14] [%]
1 | CC(=O)N[C@@H](CCCCNC(=N)N)C(=O)N[C@H](CCCNC(=N)N)C(=O)N[C@@H](CCC(N)=O)C(=O)N[C@@H](CCCCNC(=N)N)C(=O)N1CCC[C@H]1C(=O)N[C@H](CCCNC(=N)N)C(=O)N(C)[C@@H](CC(C)C)C(=O)N[C@@H](CO)C(=O)N[C@@H](Cc1c[nH]cn1)C(=O)N[C@@H](CCCCN)C(=O)NCC(=O)N1[C@H](C(=O)N[C@@H](Cc2ccc(I)cc2)C(=O)N2CCC[C@H]2C(=O)N[C@H](Cc2ccc(-c3ccccc3)cc2)C(=O)O)C[C@@H]2CCCC[C@@H]21 | 0.298 | 41 | 86 | 0.073 | 1.95 | 0.362 | 45 | 56.2 | 10.1 | 0.179 |  |  |  |  | 
2 | CCCCCCCCCCCCC(=O)N[C@@H](CCC(=O)NCCOCCOCC(=O)NCCOCCOCC(=O)N[C@@H](CCCCNC(=N)N)C(=O)N[C@H](CCCNC(=N)N)C(=O)N[C@@H](CCC(N)=O)C(=O)N[C@@H](CCCCNC(=N)N)C(=O)N1CCC[C@H]1C(=O)N[C@H](CCCNC(=N)N)C(=O)N(C)[C@@H](CC(C)C)C(=O)N[C@@H](CO)C(=O)N[C@@H](Cc1c[nH]cn1)C(=O)N[C@@H](CCCCN)C(=O)NCC(=O)N1[C@H](C(=O)N[C@@H](Cc2ccc(I)cc2)C(=O)N2CCC[C@H]2C(=O)N[C@H](Cc2ccc(-c3ccccc3)cc2)C(=O)O)C[C@@H]2CCCC[C@@H]21)C(=O)O | 0.231 | 45 | > 90 | 0.269 | 6.22 | 3.4 | 86 | 1000 | 2.18 | 0.0022 | 0.06 | 0.349 | 10.2 | 6 | 33
3 | CCCCCCCCCCCCCCCCC(=O)N[C@@H](CCC(=O)NCCOCCOCC(=O)NCCOCCOCC(=O)N[C@@H](CCCCNC(=N)N)C(=O)N[C@H](CCCNC(=N)N)C(=O)N[C@@H](CCC(N)=O)C(=O)N[C@@H](CCCCNC(=N)N)C(=O)N1CCC[C@H]1C(=O)N[C@H](CCCNC(=N)N)C(=O)N(C)[C@@H](CC(C)C)C(=O)N[C@@H](CO)C(=O)N[C@@H](Cc1c[nH]cn1)C(=O)N[C@@H](CCCCN)C(=O)NCC(=O)N1[C@H](C(=O)N[C@@H](Cc2ccc(I)cc2)C(=O)N2CCC[C@H]2C(=O)N[C@H](Cc2ccc(-c3ccccc3)cc2)C(=O)O)C[C@@H]2CCCC[C@@H]21)C(=O)O | 0.092 | 68 | 79 | 0.465 | 7.42 | 2.18 | 83 | 200 | 1.23 | 0.0064 | 0.27 | 0.753 | 10.3 | 12 | 36
4 | CCCCCC(=O)N[C@@H](CCC(=O)NCCOCCOCC(=O)NCCOCCOCC(=O)N[C@@H](CCCCNC(=N)N)C(=O)N[C@H](CCCNC(=N)N)C(=O)N[C@@H](CCC(N)=O)C(=O)N[C@@H](CCCCNC(=N)N)C(=O)N1CCC[C@H]1C(=O)N[C@H](CCCNC(=N)N)C(=O)N(C)[C@@H](CC(C)C)C(=O)N[C@@H](CO)C(=O)N[C@@H](Cc1c[nH]cn1)C(=O)N[C@@H](CCCCN)C(=O)NCC(=O)N1[C@H](C(=O)N[C@@H](Cc2ccc(I)cc2)C(=O)N2CCC[C@H]2C(=O)N[C@H](Cc2ccc(-c3ccccc3)cc2)C(=O)O)C[C@@H]2CCCC[C@@H]21)C(=O)O | 0.203 |  |  | 0.372 | 2.31 | 2.31 |  | 483 | 1.64 | 0.0034 | 0.37 | 1.05 | 2.6 | 4 | 56

Next, values leading:

Row | Vd [1] [L/kg] | remaining at 4 h [2] [%] | remaining at 4 h [3] [%] | AUC(0-t) at 48 h [4] [µM·h] | EC50 (Apelin receptor) [nM] | half-life [5] [h] | remaining at 4 h [6] [%] | CL free [7] [mL/min/kg] | clearance [8] [mL/min/kg] | fraction unbound [9] | fCmax [10] [nM] | AUC(0-t) at 48 h [11] [µM·h] | half-life [12] [h] | Tmax [13] [h] | bioavailability [14] [%] | Compound
5 | 0.074 | 66 | > 90 | 0.426 | 4.39 | 1.84 | 84 | 650 | 1.35 | 0.0021 | 0.07 | 0.404 | 6.3 | 8 | 24 | CCCCCCCCCCCCCCC(=O)N[C@@H](CCC(=O)NCCOCCOCC(=O)NCCOCCOCC(=O)N[C@@H](CCCCNC(=N)N)C(=O)N[C@H](CCCNC(=N)N)C(=O)N[C@@H](CCC(N)=O)C(=O)N[C@@H](CCCCNC(=N)N)C(=O)N1CCC[C@H]1C(=O)N[C@H](CCCNC(=N)N)C(=O)N(C)[C@@H](CC(C)C)C(=O)N[C@@H](CO)C(=O)N[C@@H](Cc1c[nH]cn1)C(=O)N[C@@H](CCCCN)C(=O)NCC(=O)N1[C@H](C(=O)N[C@@H](Cc2ccc(I)cc2)C(=O)N2CCC[C@H]2C(=O)N[C@H](Cc2ccc(-c3ccccc3)cc2)C(=O)O)C[C@@H]2CCCC[C@@H]21)C(=O)O
6 | 0.165 | 85 | > 90 | 4.45 | 117 | 19.7 | 86 | 85 | 0.11 | 0.0013 | 0.33 | 9.58 | > 24 | 24 | > 36 | CC(C)C[C@@H](C(=O)N[C@@H](CO)C(=O)N[C@@H](Cc1c[nH]cn1)C(=O)N[C@@H](CCCNC(=N)N)C(=O)NCC(=O)N1[C@H](C(=O)N[C@@H](Cc2ccc(I)cc2)C(=O)N2CCC[C@H]2C(=O)N[C@H](Cc2ccc(-c3ccccc3)cc2)C(=O)O)C[C@@H]2CCCC[C@@H]21)N(C)C(=O)[C@@H](CCCNC(=N)N)NC(=O)[C@@H]1CCCN1C(=O)[C@H](CCCCNC(=N)N)NC(=O)[C@H](CCC(N)=O)NC(=O)[C@@H](CCCNC(=N)N)NC(=O)[C@H](CCCCNC(=N)N)NC(=O)COCCOCCNC(=O)COCCOCCNC(=O)CC[C@H](NC(=O)CCCCCCCCCCCCCCCCC(=O)O)C(=O)O
7 | 0.139 | 15 | > 90 | 0.682 | 4.1 | 2.32 | 76 | 152 | 0.92 | 0.0061 | 1.2 | 1.98 | 4.1 | 4.7 | 58 | CC(C)C[C@@H](C(=O)N[C@@H](CO)C(=O)N[C@@H](Cc1c[nH]cn1)C(=O)N[C@@H](CCCCN)C(=O)NCC(=O)N1[C@H](C(=O)N[C@@H](Cc2ccc(I)cc2)C(=O)N2CCC[C@H]2C(=O)N[C@H](Cc2ccc(-c3ccccc3)cc2)C(=O)O)C[C@@H]2CCCC[C@@H]21)N(C)C(=O)[C@@H](CCCNC(=N)N)NC(=O)[C@@H]1CCCN1C(=O)[C@H](CCCCNC(=N)N)NC(=O)[C@H](CCC(N)=O)NC(=O)[C@@H](CCCNC(=N)N)NC(=O)[C@H](CCCCNC(=N)N)NC(=O)COCCOCCNC(=O)COCCOCCNC(=O)CC[C@H](NC(=O)CCCCC(=O)O)C(=O)O
